Test results: PMC9019100, “Development of NanoLuc-targeting protein degraders and a universal reporter system to benchmark tag-targeted degradation platforms” (Nature Communications, 2022)
Where “and” joins values, the source holds several entries; their conditions need not be identical. Identical values can stand only once. Like-named read-outs stand apart in the source and are kept apart here.

Experiments:
MLKL-FKBP^F36V = MLKL-FKBP^F36V (Homo sapiens, UniProt P62942, F37V); type: cell-based; conditions: 5 h, low nM concentrations
MLKL-FKBP^F36V, sequence (P62942 whole entry F37V, the tested form may be a part): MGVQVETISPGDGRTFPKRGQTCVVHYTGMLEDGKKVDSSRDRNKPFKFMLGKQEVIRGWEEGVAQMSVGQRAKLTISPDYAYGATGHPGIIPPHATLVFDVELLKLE
Procedure: All experiments were repeated independently three times, and a representative Fig. is shown.
All timepoint experiments were performed as reverse timepoints in order to harvest all cells at the same time. At the indicated time points cells were lysed in NuPAGE LDS lysis buffer (Invitrogen) diluted to 1× in DISC lysis buffer (20 mM Tris-HCl pH7.5, 150 mM NaCl, 2 mM EDTA pH 8.0, 1% Triton X-100, 10% glycerol, H20)) supplemented with β-Mercaptoethanol (2%), protease and phosphatase inhibitors. Lysates were run through polypropylene columns (Pierce) to shred DNA. […] Membranes were blocked in 5% skim milk (Devondale) in TBS-T (TBS, 0.1% Tween-20) for 1 h prior to immunoblotting with primary antibodies overnight at 4 °C. Unless stated otherwise, all primary antibodies were diluted in TBS-T (TBS, 0.1% Tween-20) containing 5% BSA (Sigma A8022) and 0.04% sodium azide: HaloTag (1:1000, Promega; G9211), NanoLuc (1:500, Promega; N7000), β-actin (1:20,000, Sigma; A-1798), MLKL (1:1000, produced in-house; 3H1 clone)[39], FKBP (1:1000, R&D systems; 422513), caspase-8 (1:1000, Proteintech; 13423-1-AP), Histone H3 (1:1000, Abcam; ab10799), Cadherin (1:1000, Cell Signalling Technologies; 4068 T). Membranes were washed 3 × 5–10 min in TBS-T (TBS, 0.1% Tween-20) prior to the addition of the appropriate secondary antibodies conjugated with horseradish peroxidase (Jaxon laboratories). […]

[1] = biological target: T1, Halo-EGFP-NanoLuc-FKBP^F36V (H-E-N-F) fusion protein (UniProt P0A3G2+P62942+Q9GV45, A155T/A167V/A172T/A224E/A31E/A60N/A81I/C128F/C176G/D78G/E160K/E257K/F37V/F95D/H272N/I117V/K175M/K195N/K70R/L47V/L54V/L88M/L99Q/M102K/N193R/N227D/P142E/P291S/Q151K/Q38R/Q45L/S2A/S58T/T264A/V71I/Y165I/Y273L/Y87F); type: cell-based; design: expressed in transfected cells; host or cells: immortalized mouse dermal fibroblasts (iMDFs), ubiquitin promoter, constitutive; conditions: 500 nM
Target sequence in this assay (P0A3G2 other isoform, or with tags, fused parts or gaps with the stated changes): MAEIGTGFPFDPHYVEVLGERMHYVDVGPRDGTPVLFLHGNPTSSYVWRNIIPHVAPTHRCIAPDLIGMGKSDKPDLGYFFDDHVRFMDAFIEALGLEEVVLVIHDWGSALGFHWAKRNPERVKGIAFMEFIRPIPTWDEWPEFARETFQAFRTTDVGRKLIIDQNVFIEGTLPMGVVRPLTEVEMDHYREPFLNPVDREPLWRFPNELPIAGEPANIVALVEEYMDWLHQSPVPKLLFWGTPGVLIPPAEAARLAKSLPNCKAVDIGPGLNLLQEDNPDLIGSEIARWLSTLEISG
Target sequence in this assay (Q9GV45 other isoform, or with tags, fused parts or gaps with the stated changes): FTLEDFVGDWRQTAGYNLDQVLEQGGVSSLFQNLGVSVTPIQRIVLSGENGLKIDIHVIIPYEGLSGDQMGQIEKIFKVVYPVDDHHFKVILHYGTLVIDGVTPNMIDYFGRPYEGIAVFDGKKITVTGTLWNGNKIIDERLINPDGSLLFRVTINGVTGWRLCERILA
Target sequence in this assay (P62942 whole entry F37V, the tested form may be a part): as the sequence (P62942 whole entry F37V, the tested form may be a part) above

wild-type HT29 cells = experiment: Necroptosis assay (PI exclusion, flow cytometry), wild-type HT29 cells, TNF+SM+IDN; type: cell-based, human; conditions: sheet S5G
Procedure: To simulate necroptosis, cells were seeded into 96-well plates ±40 ng/mL doxycycline, to induce construct expression, and treated with 100 ng/mL FLAG-TNF (recombinant human, in-house), 500 nM compound A Smac mimetic (kindly gifted by TetraLogics Pharmaceuticals) and 5 μM IDN-6556 (Cayman) or 10 uM Z-VAD-fmk (Selleckchem) overnight (16–24 h). Degrader compounds or a DMSO vehicle control were added for 5 h, as stated in the Fig. legends. Cells were detached using Trypsin-EDTA (Merck) and resuspended in cell supernatants containing 10 μg/mL propidium iodide (PI). PI exclusion analysis was performed using an LSR II flow cytometer (Becton Dickinson, NJ) with 10,000 single-cell events per sample. Flow cytometry data were analysed using WEASEL version 2.7 software (Frank Battye).
Supplementary Figure 5. […]
NC4. Data are representative of N = 3 independent experiments. f-h. HT29 cells were stimulated with DMSO (control) or 500 nM of degrader for 5 hours before the addition of TNF (100 ng/mL) + Smac mimetic (compound A; 500 nM-1 µM) + caspase inhibitor; Emricasan (IDN) (5 µM), for 24 hours. Cell death was assessed by flow cytometric analysis of PI exclusion. N = 3 replicates (symbols) is shown, EB; mean ± SD. Data are representative of N = 3 independent experiments. i. Representative flow cytometry gating strategy. Source data are provided as a Source Data file.

[2] = system: MLKL^−/−CASP8^−/− HT29 cells expressing MLKL-NLuc and caspase-8-FKBP^F36V; conditions: TNF+SM
Fibrillarin-FKBP^F36V = biological target: T2, Fibrillarin-FKBP^F36V (Homo sapiens, UniProt P62942, F37V); type: cell-based; conditions: 500 nM, 10 h
T2 construct: endogenous in cells; host or cells: 293T, CRISPR/PITCh knock-in at the FBL locus
T2 sequence (P62942 whole entry F37V): as the sequence (P62942 whole entry F37V, the tested form may be a part) above

[3] = biological target: T1, Halo-EGFP-NanoLuc-FKBP^F36V (H-E-N-F) fusion protein; type: cell-based; conditions: +dox; for Blank corrected (470-80) luminescence: single well replicates; for Blank corrected Raw Data (470-80): PROTAC 500nM, replicate wells
Target sequence in this assay (Q9GV45 other isoform, or with tags, fused parts or gaps with the stated changes): as the sequence (Q9GV45 other isoform, or with tags, fused parts or gaps with the stated changes) above
Target sequence in this assay (P0A3G2 other isoform, or with tags, fused parts or gaps with the stated changes): as the sequence (P0A3G2 other isoform, or with tags, fused parts or gaps with the stated changes) above
Target sequence in this assay (P62942 whole entry F37V, the tested form may be a part): as the sequence (P62942 whole entry F37V, the tested form may be a part) above

[4] = system: MLKL^−/− HT29 cells expressing untagged MLKL; type: cell-based; conditions: MLKL-/- + MLKL, TNF+911+zVAD, replicate columns
Procedure: Cell death was assessed by flow cytometric analysis of PI exclusion. […] Cell death was assessed by flow cytometric analysis of PI exclusion. […] Cell death was assessed by flow cytometric analysis of PI exclusion. e N = 4, f N = 3 independent experiments (symbols), EB represent mean ± SD. g Western from MLKL^−/−CASP8^−/− HT29 cells stably expressing the doxycycline-inducible C-terminal fusion protein, MLKL-NanoLuc (MLKL-NLuc) and constitutively expressing the C-terminal fusion protein caspase-8-FKBP^F36V. […] Cell death was assessed using an IncuCyte and Cytotox-Red uptake. N = 3 independent experiments, one representative experiment shown, EB represent mean ± SD.

Structure (SMILES): CC[C@H](C(=O)N1CCCC[C@H]1C(=O)O[C@H](CCc1ccc(OC)c(OC)c1)c1ccccc1OCC(=O)NCCCCCCC(=O)N[C@H](C(=O)N1C[C@H](O)C[C@H]1C(=O)N[C@@H](C)c1ccc(-c2scnc2C)cc1)C(C)(C)C)c1cc(OC)c(OC)c(OC)c1 [FV1]
- MLKL-FKBP^F36V protein level by Western blot (MLKL-FKBP^F36V): no detectable protein
- time up to which degradation was seen, degrader left in the medium ([1]; 5, 24 or 48 h): up to 48 h
- time up to which degradation was maintained, degrader removed at 5 h ([1]; 24 or 48 h after removal): up to 48 h
- viable cells (PI exclusion) (wild-type HT29 cells; TNF+SM+IDN): 9.5 and 6.6 and 6.1
- viable cells (PI exclusion) (wild-type HT29 cells; Unt (no death stimulus)): 76.3 and 74.4 and 69.6
- Cytotox-Red uptake (cell death), IncuCyte ([2]; elapsed 0 h): 162.812
- Cytotox-Red uptake (cell death), IncuCyte ([2]; elapsed 0.5 h): 163.75
- Cytotox-Red uptake (cell death), IncuCyte ([2]; elapsed 1 h): 172.188
- Cytotox-Red uptake (cell death), IncuCyte ([2]; elapsed 2 h): 261.562
- Cytotox-Red uptake (cell death), IncuCyte ([2]; elapsed 3 h): 541.625
- Cytotox-Red uptake (cell death), IncuCyte ([2]; elapsed 4 h): 907.75
- Cytotox-Red uptake (cell death), IncuCyte ([2]; elapsed 5 h): 1277
- Cytotox-Red uptake (cell death), IncuCyte ([2]; elapsed 6 h): 1576.88
- Cytotox-Red uptake (cell death), IncuCyte ([2]; elapsed 6.5 h): 1701.5
- Cytotox-Red uptake (cell death), IncuCyte ([2]; elapsed 7 h): 1872.81
- Cytotox-Red uptake (cell death), IncuCyte ([2]; elapsed 7.5 h): 1974.44
- Cytotox-Red uptake (cell death), IncuCyte ([2]; elapsed 8 h): 2103.31
- Cytotox-Red uptake (cell death), IncuCyte ([2]; elapsed 9 h): 2328
- Cytotox-Red uptake (cell death), IncuCyte ([2]; elapsed 9.5 h): 2410.25
- Cytotox-Red uptake (cell death), IncuCyte ([2]; elapsed 10 h): 2505.44
- Cytotox-Red uptake (cell death), IncuCyte ([2]; elapsed 10.5 h): 2578.38
- Cytotox-Red uptake (cell death), IncuCyte ([2]; elapsed 11 h): 2647
- Cytotox-Red uptake (cell death), IncuCyte ([2]; elapsed 12 h): 2777.19
- Cytotox-Red uptake (cell death), IncuCyte ([2]; elapsed 13 h): 2864.25
- Cytotox-Red uptake (cell death), IncuCyte ([2]; elapsed 13.5 h): 3026.81
- Cytotox-Red uptake (cell death), IncuCyte ([2]; elapsed 14 h): 2985.5
- Cytotox-Red uptake (cell death), IncuCyte ([2]; elapsed 14.5 h): 2992.62
- Cytotox-Red uptake (cell death), IncuCyte ([2]; elapsed 15 h): 3009.12
- Cytotox-Red uptake (cell death), IncuCyte ([2]; elapsed 16 h): 3103.38
- Cytotox-Red uptake (cell death), IncuCyte ([2]; elapsed 17 h): 3055.31
- Cytotox-Red uptake (cell death), IncuCyte ([2]; elapsed 18 h): 3042.38
- Cytotox-Red uptake (cell death), IncuCyte ([2]; elapsed 19 h): 3048.56
- Cytotox-Red uptake (cell death), IncuCyte ([2]; elapsed 19.5 h): 3013.69
- Dmax (densitometry) (Fibrillarin-FKBP^F36V): ~ 95.9%
- Blank corrected (470-80) luminescence ([3]; 3.9nM PROTAC): 31936 and 32480 and 32608 and 31981
- Blank corrected (470-80) luminescence ([3]; 7.8nM PROTAC): 24693 and 21134 and 25624 and 20591
- Blank corrected (470-80) luminescence ([3]; 31.25nM PROTAC): 9757 and 8948 and 8891 and 8313
- Blank corrected (470-80) luminescence ([3]; 62.5nM PROTAC): 5245 and 5647 and 5355 and 5575
- Blank corrected (470-80) luminescence ([3]; 250nM PROTAC): 2257 and 3039 and 2286 and 2469
- Blank corrected (470-80) luminescence ([3]; 500nM PROTAC, 5h): 3865 and 3357 and 3449 and 3849
- Blank corrected (470-80) luminescence ([3]; 500nM PROTAC, 8h): 4070 and 3846 and 4184 and 2817
- Blank corrected (470-80) luminescence ([3]; 500nM PROTAC, 24h): 5571 and 3433 and 4739
- Blank corrected (470-80) luminescence ([3]; 500nM PROTAC): 1404 and 1634 and 1510 and 1568
- Blank corrected (470-80) luminescence ([3]; 1uM PROTAC): 1692 and 1683 and 1666 and 1785
- Blank corrected Raw Data (470-80) ([3]; DMSO (control) co-treatment): 1481 and 2747 and 2028
- Blank corrected Raw Data (470-80) ([3]; co-treatment with MG132 (10uM)): 32421 and 46504 and 47437 and 52425
- TNF+911+zVAD (PI exclusion) ([4]; degrader 3.9nM): 5.8 and 7 and 7.6
- TNF+911+zVAD (PI exclusion) ([4]; degrader 7.8nM): 6.7 and 5.9 and 5.7
- TNF+911+zVAD (PI exclusion) ([4]; degrader 31.25nM): 5.8 and 6 and 5.7
- TNF+911+zVAD (PI exclusion) ([4]; degrader 62.5nM): 6.1 and 6.6 and 5.2
- TNF+911+zVAD (PI exclusion) ([4]; degrader 250nM): 6.3 and 5.6 and 5.3
- TNF+911+zVAD (PI exclusion) ([4]; degrader 500nM): 5.9 and 5.1 and 4.5
- TNF+911+zVAD (PI exclusion) ([4]; degrader 1000nM): 5.8 and 4.9 and 5
